Results published in the NIST ThermoML archive (doi:10.1016/j.fluid.2010.08.022).
± gives the expanded uncertainty stated by the source.

Settings: 101.33 kPa; for speed of sound: Sing-around technique in a fixed-path interferometer; for mass density: Vibrating tube method; for viscosity: 368.15 K, Visco Elite L rheometer

CCCCCCCC/C=C\CCCCCCCC(=O)[O-].OCC[NH2+]CCO [bis(2-hydroxyethyl)ammonium oleate]
Liquid crystal of unknown type
Settings | mass density [kg/m3] | speed of sound [m/s]
310.91 K | 956.801 ± 1.7 | 1479.3 ± 3.7
311.16 K | 956.637 ± 1.7 | 1478.5 ± 3.7
311.41 K | 956.474 ± 1.7 | 1477.7 ± 3.7
311.66 K | 956.311 ± 1.7 | 1476.9 ± 3.7
311.91 K | 956.146 ± 1.7 | 1476.1 ± 3.7
312.16 K | 955.984 ± 1.7 | 1475.3 ± 3.7
312.41 K | 955.821 ± 1.7 | 1474.5 ± 3.7
312.66 K | 955.658 ± 1.7 | 1473.7 ± 3.7
312.91 K | 955.495 ± 1.7 | 1472.9 ± 3.7
313.16 K | 955.331 ± 1.7 | 1472.1 ± 3.7
313.4 K | 955.169 ± 1.7 | 1471.3 ± 3.7
313.66 K | 955.006 ± 1.7 | 1470.5 ± 3.7
313.91 K | 954.842 ± 1.7 | 1469.7 ± 3.7
314.16 K | 954.679 ± 1.7 | 1468.9 ± 3.7
314.41 K | 954.514 ± 1.7 | 1468.2 ± 3.7
314.66 K | 954.352 ± 1.7 | 1467.4 ± 3.7
314.91 K | 954.186 ± 1.7 | 1466.6 ± 3.7
315.16 K | 954.024 ± 1.7 | 1465.8 ± 3.7
315.41 K | 953.862 ± 1.7 | 1465 ± 3.7
315.65 K | 953.699 ± 1.7 | 1464.2 ± 3.7
315.91 K | 953.533 ± 1.7 | 1463.4 ± 3.7
316.16 K | 953.369 ± 1.7 | 1462.7 ± 3.7
316.41 K | 953.207 ± 1.7 | 1461.9 ± 3.7
316.66 K | 953.043 ± 1.7 | 1461.1 ± 3.7
316.91 K | 952.88 ± 1.7 | 1460.3 ± 3.7
317.16 K | 952.716 ± 1.7 | 1459.5 ± 3.7
317.41 K | 952.551 ± 1.7 | 1458.8 ± 3.7
317.66 K | 952.388 ± 1.7 | 1458 ± 3.7
317.91 K | 952.225 ± 1.7 | 1457.2 ± 3.7
318.16 K | 952.061 ± 1.7 | 1456.4 ± 3.7
318.41 K | 951.897 ± 1.7 | 1455.6 ± 3.7
318.66 K | 951.733 ± 1.7 | 1454.9 ± 3.7
318.91 K | 951.57 ± 1.7 | 1454.1 ± 3.7
319.16 K | 951.406 ± 1.7 | 1453.3 ± 3.7
319.41 K | 951.243 ± 1.7 | 1452.5 ± 3.7
319.66 K | 951.078 ± 1.7 | 1451.7 ± 3.7
319.91 K | 950.913 ± 1.7 | 1451 ± 3.7
320.16 K | 950.75 ± 1.7 | 1450.2 ± 3.7
320.41 K | 950.587 ± 1.7 | 1449.4 ± 3.7
320.66 K | 950.422 ± 1.7 | 1448.6 ± 3.7
320.91 K | 950.258 ± 1.7 | 1447.8 ± 3.7
321.16 K | 950.094 ± 1.7 | 1447.1 ± 3.7
321.41 K | 949.931 ± 1.7 | 1446.3 ± 3.7
321.66 K | 949.766 ± 1.7 | 1445.5 ± 3.7
321.91 K | 949.603 ± 1.7 | 1444.7 ± 3.7
322.16 K | 949.437 ± 1.7 | 1444 ± 3.7
322.41 K | 949.275 ± 1.7 | 1443.2 ± 3.7
322.65 K | 949.109 ± 1.7 | 1442.4 ± 3.7
322.91 K | 948.946 ± 1.7 | 1441.6 ± 3.7
323.16 K | 948.781 ± 1.7 | 1440.8 ± 3.7
323.41 K | 948.617 ± 1.7 | 1440.1 ± 3.7
323.66 K | 948.452 ± 1.7 | 1439.3 ± 3.7
323.91 K | 948.289 ± 1.7 | 1438.5 ± 3.7
324.16 K | 948.125 ± 1.7 | 1437.8 ± 3.7
324.41 K | 947.96 ± 1.7 | 1437 ± 3.7
324.66 K | 947.796 ± 1.7 | 1436.2 ± 3.7
324.9 K | 947.631 ± 1.7 | 1435.4 ± 3.7
325.16 K | 947.466 ± 1.7 | 1434.7 ± 3.7
325.41 K | 947.302 ± 1.7 | 1433.9 ± 3.7
325.66 K | 947.136 ± 1.7 | 1433.2 ± 3.7
325.91 K | 946.972 ± 1.7 | 1432.4 ± 3.7
326.16 K | 946.806 ± 1.7 | 1431.6 ± 3.7
326.41 K | 946.644 ± 1.7 | 1430.8 ± 3.7
326.66 K | 946.479 ± 1.7 | 1430.1 ± 3.7
326.91 K | 946.315 ± 1.7 | 1429.3 ± 3.7
327.16 K | 946.149 ± 1.7 | 1428.5 ± 3.7
327.41 K | 945.984 ± 1.7 | 1427.8 ± 3.7
327.66 K | 945.82 ± 1.7 | 1427 ± 3.7
327.91 K | 945.656 ± 1.7 | 1426.2 ± 3.7
328.16 K | 945.489 ± 1.7 | 1425.5 ± 3.7
328.41 K | 945.323 ± 1.7 | 1424.7 ± 3.7
328.66 K | 945.159 ± 1.7 | 1423.9 ± 3.7
328.91 K | 944.994 ± 1.7 | 1423.2 ± 3.7
329.16 K | 944.829 ± 1.7 | 1422.4 ± 3.7
329.41 K | 944.663 ± 1.7 | 1421.6 ± 3.7
329.66 K | 944.498 ± 1.7 | 1420.8 ± 3.7
329.91 K | 944.332 ± 1.7 | 1420.1 ± 3.7
330.16 K | 944.168 ± 1.7 | 1419.3 ± 3.7
330.41 K | 944.002 ± 1.7 | 1418.5 ± 3.7
330.66 K | 943.835 ± 1.7 | 1417.8 ± 3.7
330.91 K | 943.671 ± 1.7 | 1417 ± 3.7
331.16 K | 943.506 ± 1.7 | 1416.3 ± 3.7
331.4 K | 943.341 ± 1.7 | 1415.5 ± 3.7
331.66 K | 943.175 ± 1.7 | 1414.7 ± 3.7
331.91 K | 943.009 ± 1.7 | 1414 ± 3.7
332.16 K | 942.844 ± 1.7 | 1413.2 ± 3.7
332.41 K | 942.679 ± 1.7 | 1412.5 ± 3.7
332.66 K | 942.512 ± 1.7 | 1411.7 ± 3.7
332.91 K | 942.347 ± 1.7 | 1410.9 ± 3.7
333.16 K | 942.18 ± 1.7 | 1410.2 ± 3.7
333.41 K | 942.013 ± 1.7 | 1409.4 ± 3.7
333.66 K | 941.847 ± 1.7 | 1408.7 ± 3.7
333.91 K | 941.682 ± 1.7 | 1407.9 ± 3.7
334.16 K | 941.516 ± 1.7 | 1407.2 ± 3.7
334.41 K | 941.349 ± 1.7 | 1406.4 ± 3.7
334.66 K | 941.183 ± 1.7 | 1405.6 ± 3.7
334.91 K | 941.018 ± 1.7 | 1404.9 ± 3.7
335.16 K | 940.851 ± 1.7 | 1404.1 ± 3.7
335.41 K | 940.685 ± 1.7 | 1403.4 ± 3.7
335.66 K | 940.519 ± 1.7 | 1402.6 ± 3.7
335.91 K | 940.352 ± 1.7 | 1401.8 ± 3.7
336.16 K | 940.185 ± 1.7 | 1401.1 ± 3.7
336.41 K | 940.019 ± 1.7 | 1400.3 ± 3.7
336.66 K | 939.852 ± 1.7 | 1399.6 ± 3.7
336.91 K | 939.686 ± 1.7 | 1398.8 ± 3.7
337.16 K | 939.519 ± 1.7 | 1398 ± 3.7
337.4 K | 939.352 ± 1.7 | 1397.3 ± 3.7
337.66 K | 939.185 ± 1.7 | 1396.5 ± 3.7
337.91 K | 939.017 ± 1.7 | 1395.8 ± 3.7
338.16 K | 938.852 ± 1.7 | 1395 ± 3.7
338.41 K | 938.684 ± 1.7 | 1394.3 ± 3.7
338.66 K | 938.517 ± 1.7 | 1393.5 ± 3.7
338.91 K | 938.351 ± 1.7 | 1392.8 ± 3.7
339.16 K | 938.182 ± 1.7 | 1392 ± 3.7
339.41 K | 938.014 ± 1.7 | 1391.2 ± 3.7
339.66 K | 937.846 ± 1.7 | 1390.5 ± 3.7
339.91 K | 937.68 ± 1.7 | 1389.7 ± 3.7
340.15 K | 937.513 ± 1.7 | 1389 ± 3.7
340.41 K | 937.345 ± 1.7 | 1388.2 ± 3.7
340.66 K | 937.177 ± 1.7 | 1387.5 ± 3.7
340.91 K | 937.009 ± 1.7 | 1386.7 ± 3.7
341.16 K | 936.844 ± 1.7 | 1386 ± 3.7
341.41 K | 936.674 ± 1.7 | 1385.2 ± 3.7
341.65 K | 936.507 ± 1.7 | 1384.5 ± 3.7
341.91 K | 936.339 ± 1.7 | 1383.8 ± 3.7
342.16 K | 936.171 ± 1.7 | 1383 ± 3.7
342.41 K | 936.003 ± 1.7 | 1382.3 ± 3.7
342.66 K | 935.836 ± 1.7 | 1381.5 ± 3.7
342.9 K | 935.668 ± 1.7 | 1380.8 ± 3.7
343.15 K | 935.491 ± 1.7 | 1380.1 ± 3.7

Settings | viscosity [mPa·s]
Liquid | 37.2 ± 0.7
Liquid crystal of unknown type | 37.2 ± 0.7
